Measured values published in article PMC9851725 (International Journal of Biological Macromolecules, 2023).
Like-named read-outs stand apart in the source and are kept apart here.

Experiments:
SARS-CoV-2 [1] = details: Vero-E6 cells ref 9; cited from earlier work
SARS-CoV-2 PLpro [2] = molecular target: T1, SARS-CoV-2 PLpro (Severe acute respiratory syndrome coronavirus 2, UniProt P0DTD1); assay type: biochemical
SARS-CoV-2 PLpro [3] = molecular target: T1, SARS-CoV-2 PLpro; assay type: binding
SARS-CoV-2 [4] = assay type: cell-based
SARS-CoV-2 [5] = assay type: in vivo, Syrian hamster; details: for reduction in virus RNA levels in throat swabs vs untreated control: daily day 0–4, day 5
[6] = 15, 30, 45 mg/kg oral; observation period of five days
PLpro = PLpro (Severe acute respiratory syndrome coronavirus 2, UniProt P0DTD1); test: Differential scanning fluorimetry; details: PLpro 2.5 μM; ATA 0.78 μM to 200 μM; 20 °C to 90 °C
[7] = PLpro pre-incubated with GRL0617 for 2 h
[8] = binding to PLpro, no pre-incubation

Compound: Nc1nc2nc[nH]c2c(=S)[nH]1 [6-TG, 6-thioguanine]
- EC50 (SARS-CoV-2 [1]): ~2000 nM

Compound: O=C(O)C1=CC(=C(c2ccc(O)c(C(=O)O)c2)c2ccc(O)c(C(=O)O)c2)C=CC1=O [ATA, aurintricarboxylic acid]
- type of inhibition (SARS-CoV-2 PLpro [2]; best fit of kinetic data among four models (AICc)): non-competitive
- inhibition of PLpro enzymatic activity in library screening (SARS-CoV-2 PLpro [2]; compounds up to 300 μM, 200 nM enzyme, 20 μM substrate, 5 mM DTT): significant inhibition
- N (stoichiometry) (SARS-CoV-2 PLpro [3]; [7]): 1.30
- ΔH (enthalpy change) (SARS-CoV-2 PLpro [3]; [7]): -2.403 kcal/mol
- ΔS (entropy change) (SARS-CoV-2 PLpro [3]; [7]): 14.6 cal/mol/deg
- N (stoichiometry) (SARS-CoV-2 PLpro [3]; [8]): 1.31
- ΔH (enthalpy change) (SARS-CoV-2 PLpro [3]; [8]): -2.469 kcal/mol
- ΔS (entropy change) (SARS-CoV-2 PLpro [3]; [8]): 14.3 cal/mol/deg
- enthalpy (ΔH) (SARS-CoV-2 PLpro [3]; one-site binding model, no pre-incubation): -2.47 kcal/mol
- % reduction (SARS-CoV-2 [4]; 25 μM ATA): 3.1%
- Viral RNA copy no./ml (SARS-CoV-2 [4]; 25 μM ATA): 2404
- % reduction (SARS-CoV-2 [4]; 75 μM ATA): 84.2%
- Viral RNA copy no./ml (SARS-CoV-2 [4]; 75 μM ATA): 393
- % reduction (SARS-CoV-2 [4]; 100 μM ATA): 91.7%
- Viral RNA copy no./ml (SARS-CoV-2 [4]; 100 μM ATA): 207
- % reduction (SARS-CoV-2 [4]; 200 μM ATA): 92.2%
- Viral RNA copy no./ml (SARS-CoV-2 [4]; 200 μM ATA): 193
- % reduction (SARS-CoV-2 [4]; 300 μM ATA): 97.1%
- Viral RNA copy no./ml (SARS-CoV-2 [4]; 300 μM ATA): 71
- % reduction (SARS-CoV-2 [4]; 400 μM ATA): 99.0%
- Viral RNA copy no./ml (SARS-CoV-2 [4]; 400 μM ATA): 25
- reduction of virus RNA levels in lung tissues vs untreated control (SARS-CoV-2 [5]; 15, 30, 45 mg/kg oral, day 5): no significant reduction
- lung pathology vs untreated (SARS-CoV-2 [5]; 15, 30, 45 mg/kg oral, day 5, H&E): no noticeable difference
- reduction in virus RNA levels in throat swabs vs untreated control (SARS-CoV-2 [5]; group A, 15 mg/kg oral): 0.4 log
- reduction in virus RNA levels in throat swabs vs untreated control (SARS-CoV-2 [5]; group B, 30 mg/kg oral): 0.4 log
- reduction in virus RNA levels in throat swabs vs untreated control (SARS-CoV-2 [5]; group C, 45 mg/kg oral): 1 log
- weight loss, gross complications, or mortality [6]: no significant weight loss
- effect on PLpro structure (SYPRO Orange dye fluorescence) (PLpro): stabilizes the protein structure

Compound: O=C1C=CC(=C(c2ccc(O)cc2)c2ccc(O)cc2)C=C1 [aurin, reference compound]
- inhibition of PLpro (SARS-CoV-2 PLpro [2]): didn't inhibit
